Tests used:
B. theta = experiment: In vitro bacterial rescue study with folic acid; type: cell-based, Bacteroides thetaiotaomicron; conditions: in the presence and absence of MTX; folic acid 0-250 μg/ml
Description: (§1) As described in the ur in vitro bacterial growth studies, 48-hour overnight cultures were grown in an anaerobic chamber in liquid BHI+ for the following isolates: Bacteroides vulgatus, Bacteroides thetaiotaomicron, Clostridium innocuum and Clostridium symbiosum. Each subculture was diluted down to an OD600 of 0.08-0.1, which was then further diluted 100-fold, and then used to inoculate a 96-well microtiter plate with 2-fold serial dilutions of MTX (Sigma, Cat #M9929) concentrations ranging from 0-450 μg/ml (0-990 μM) along the columns (1-10) and 2-fold serial dilutions of folic acid (Fischer Scientific, BP25195) ranging from 0-250 μg/ml (0-566 μM) along the rows (A-H). Each plate included media and growth controls. […]
(§2) Growth parameters (carrying capacity, time to mid-exponential and growth rate) were calculated in R using GrowthCurveR (Sprouffske, K., and Wagner, A. (2016), BMC Bioinformatics 17, 1726) (v0.2.1). […] For rescue studies, as above, growth parameters (carrying capacity, time to mid-exponential, growth rate, and area under the curve) were calculated in R using GrowthCurveR (Sprouffske and Wagner, 2016) (v0.2.1). Four isolates were evaluated with varying sensitivity to MTX (B. thetaiotaomicron, B. vulgatus, C. innocuum and C. symbiosum). […] Growth curves at 9 concentrations of MTX tested against 7 concentrations of folic acid were measured. […]

C. symbiosum = experiment: In vitro bacterial rescue study with folic acid; type: cell-based, Clostridium symbiosum; conditions: MTX resistant isolate; high doses of MTX
Description: as §1, §2

C. innocuum = experiment: In vitro bacterial rescue study with folic acid; type: cell-based, Clostridium innocuum; conditions: folic acid 0-250 μg/ml; MTX 0-450 μg/ml
Description: as §1, §2

B. vulgatus = experiment: In vitro bacterial rescue study with folic acid; type: cell-based, Bacteroides vulgatus; conditions: folic acid 0-250 μg/ml; MTX 0-450 μg/ml
Description: as §1, §2

human gut microbiota = experiment: MTX treatment of gnotobiotic mice colonized with human stool; 16S-seq and qPCR of gut microbiota; type: in vivo; conditions: Donor 3 mice, oral MTX 50 mg/kg with or without equimolar folic acid
[1] = tested on: B. vulgatus, B. thetaiotaomicron, C. innocuum, and C. symbiosum; experiment: In vitro bacterial rescue study with leucovorin; type: cell-based

Structure (SMILES)	growth in response to folic acid (B. theta)	effect of folic acid on MTX sensitivity (C. symbiosum)	dose-dependent increases in growth with folic acid (C. innocuum)	dose-dependent increases in growth with folic acid (B. vulgatus)	rescue of the gut microbiota from MTX by co-administered folic acid (α- or β-diversity between groups) (human gut microbiota)	rescue of the gut microbiota from MTX by co-administered folic acid (α- or β-diversity between groups) (human gut microbiota; listed as Folic acid)	effect of leucovorin on growth of the tested isolates ([1]; leucovorin 0-125 μg/ml (FIG. 4D and 4E))	dose-dependent effects of leucovorin on growth in the presence of MTX ([1]; leucovorin 0-125 μg/ml, linear regression (FIG. 4F))
Nc1nc2ncc(CNc3ccc(C(=O)N[C@@H](CCC(=O)O)C(=O)O)cc3)nc2c(=O)[nH]1 [folic acid]	improved in a dose-dependent manner	sensitized to MTX	only evident in the presence of MTX	only evident in the presence of MTX	Neither route nor rescue resulted in a significant difference	did not markedly rescue the gut microbiota		
Nc1nc2c(c(=O)[nH]1)N(C=O)C(CNc1ccc(C(=O)N[C@@H](CCC(=O)O)C(=O)O)cc1)CN2 (some centres unmarked) [leucovorin]							improved growth of 3 of the 4 tested isolates	did not have any significant dose-dependent effects

Source: patent publication US20220160712A1, “METHODS OF TREATING RHEUMATOID ARTHRITIS AND FOR PREDICTING THE RESPONSE TO METHOTREXATE” (CHAN ZUCKERBERG BIOHUB, INC., priority 2020, published 2022)
